{"source": "patent US7074824B2", "about": "“Pharmaceutical compositions containing beta-lapachone, or derivatives or analogs thereof, and methods of using same” (Arqule, Inc., priority 2001, dated 2006)", "key": {"[1]": {"experiment": "Solubility of β-lapachone in aqueous HPBCD solutions (heated to 70° C., filtered, HPLC)", "assay_type": "physicochemical", "description": "A β-lapachone/HPBCD solution was prepared without prior solubilization of the β-lapachone in ethanol solution. β-lapachone was combined with aqueous solutions of HPBCD in varying concentrations and the mixtures were heated to 70° C., then allowed to cool to room temperature. The cooled solutions were filtered (0.22μ), and the amount of the solubilized β-lapachone was measured by HPLC analysis."}, "human PBMC": {"tested_on": "human PBMC", "conditions": "cited from earlier work"}, "human carcinoma cells": {"tested_on": "human carcinoma cells", "experiment": "Colony formation assay of β-lapachone combined with Taxol®", "assay_type": "cell-based", "conditions": "4 h exposure, colonies scored after 10–20 days; ovarian, breast, prostate, melanoma, lung and pancreatic cell lines, FIG. 4", "description": "In these studies, exponentially growing cells were seeded at 1,000 cells per well in six-well plates and allowed to attach for 48 h. β-lapachone and/or Taxol®, solubilized in DMSO, were added to the wells. Control wells were treated with equivalent volumes of DMSO. After 4 h cells were rinsed and fresh medium was added. Cultures were observed daily for 10–20 days and then were fixed and stained. Colonies of greater than 30 cells were scored as survivors."}, "[2]": {"tested_on": "RPMI 8226 multiple myeloma cells", "assay_type": "in vivo", "description": "Chemicals. β-lapachone was synthesized and dissolved in 40% hydroxypropyl β-cyclodextrin at a concentration of 10 mg/mL and kept at room temperature in a dark container. Hydroxypropyl β-cyclodextrin was dissolved in distilled water at a concentration of 10 mg/mL and kept at room temperature. […]®, a basement membrane matrix was purchased from Becton Dickinson Labware (BD Biosciences, Two Oak Park Drive, Bedford, Mass.) and was dissolved in Dulbecco's modified Eagle's medium with 50 μg/mL Gentamycin and kept frozen at −20° C. […]® is extracted from the Engelbreth-Holm-Swarm mouse tumor, a tumor rich in extracellular matrix proteins. The major matrix components are laminin, collagen IV, entactin, and heparan sulfate proteoglycan (perlecan); the matrix also contains growth factors, matrix metalloproteinases (MMPs [collagenases]), and plasminogen activators, without any inhibitors of metalloproteinases (TIMPs). The […] matrix is a solution at 4° C. and gels at room temperature to form a three-dimensional reconstituted basement membrane. This model system closely mimics the structure, composition, physical properties, and functional characteristics of the basement membrane in vivo and provides a physiologically relevant environment for studies of cell morphology, biochemical function, migration or invasion, and gene expression. The frozen […]® matrix was thawed overnight at 4° C. before use.\nCell Cultures. RPMI8226 cells (a human multiple myeloma cell line) were provided Dr. William Dalton (Lee Moffit Cancer Center, Tampa, Fla.). They were maintained by frequent passages in RPMI 1640 (Cellgro®, Mediatech Inc., Herndon, Va.) containing 10% Fetal Bovine serum (FBS) (GibcoBRL, Life Technologies, Grand Island, N.Y.) supplemented with 2×10^−3M L-Glutamine, 100 units/mL penicillin (Pen), and 100 μg/mL streptomycin (Cellgro®D, Mediatech Inc., Herndon, Va.) in 162 cm^2 cell culture flasks (Costar®, Corning Incorporated, Corning, N.Y.). The exponentially growing cell lines were CD138+, CD38+/CD45RA−, EBV negative, and pathogen free.\nMice. Forty male 6 week old Bg-Nu-Xid mice (deficient in T, B, and NK cells) were obtained from the FCRDC, Frederick, Bethesda, Md. and housed at the Redstone animal facility at DFCI. These mice have 3 separate mutations—Beige (Bg) autosomal recessive mutation associated with impaired chemotaxis and motility of macrophages & deficiency of NK cells; the nude (nu) autosomal recessive mutation associated with depletion of T cells due to thymic agenesis; and the X-linked immune defect (xid) which produces functional defects of B lymphocytes. The animals were raised in a barrier facility in cages with saw dust bedding and laminar air at 19–22° C. Rodent food and sterile drinking water were supplied ad libitum. The mice were quarantined to rule out development of any disease. One mouse died during transport, and 5 others were lost because of dehydration (n=2), probable infection (n=2) and excessive bleeding due to trauma (n=1). After 1 week, enrofloxacin (a quinolone antibiotic) was added in drinking water of all mice. All procedures involving animals were approved by and performed according to guidelines of the Institutional Animal Care and Use Committee of the Dana Farber Cancer Institute (DFCI).\nHistologic Analysis. The mice were sacrificed when the tumor reached 20 mm in their largest diameter or they became moribund, as per the policy of the Animal Protocol Committee at Dana Farber Cancer Institute. […]"}, "[3]": {"experiment": "Solubility of β-lapachone in common solvent systems used for intravenous delivery", "assay_type": "physicochemical", "description": "β-lapachone, as well as its derivatives and analogs thereof (also referred to herein as the “active compounds”), are described in Li, C. J. et al., J. Biol. Chem., 1993. These active compounds can be incorporated into pharmaceutical compositions suitable for parenteral administration. Such compositions typically comprise the active compound and a pharmaceutically acceptable carrier, excipient, diluent or adjuvant. However, the low solubility of β-lapachone in most pharmaceutically acceptable solvents has been an obstacle to the development of a suitable formulation for parenteral and topical administration, particularly intravenous and cutaneous administration, respectively. Table 1 illustrates the limited solubility of β-lapachone in common solvent systems used for intravenous delivery of drugs. […] To achieve this plasma concentration, an intravenous formulation must have a β-lapachone concentration approaching 10 mg/ml and be able to be diluted 5–×10× with sterile fluids for intravenous administration, such as saline or D5W.\nVarious pharmaceutically acceptable solvent systems known to solubilize hydrophobic drug substances were evaluated with β-lapachone. […] However, none of these systems could be diluted 5× with sterile saline without significant precipitation of the β-lapachone from solution. In addition, most of these co-solvents and surfactants have their own toxicity and tolerability issues that need to be managed during high dose drug administration."}}, "note": "Like-named read-outs stand apart in the source and are kept apart here."}
{"smiles": "CC1(C)CCC2=C(O1)c1ccccc1C(=O)C2=O", "note": "[β-lapachone]", "values": [{"measurement": "β-lapachone (highest conc.)", "setting": "[1]; 10% HPBCD in water", "value": 3.1, "unit": "mg/mL"}, {"measurement": "β-lapachone (highest conc.)", "setting": "[1]; 20% HPBCD in water", "value": 7.4, "unit": "mg/mL"}, {"measurement": "β-lapachone (highest conc.)", "setting": "[1]; 30% HPBCD in water", "value": 10.8, "unit": "mg/mL"}, {"measurement": "β-lapachone (highest conc.)", "setting": "[1]; 40% HPBCD in water", "value": 15.8, "unit": "mg/mL"}, {"measurement": "cytotoxic effects on normal cells", "setting": "human PBMC", "value": "No cytotoxic effects were observed"}, {"measurement": "inhibition of cancer cell survival (colony formation)", "setting": "human carcinoma cells", "value": "much less effective"}, {"measurement": "tumor volume versus control group", "setting": "[2]; 50 mg/kg i.p. every alternate day in 40% HPBCD, by day 11, p=0.007", "value": "statistically significant decrease in tumor volume"}, {"measurement": "survival compared to controls", "setting": "[2]; day 5, 7, 9, 11, 13, 15 and 17, FIG. 16", "value": "survival was greater"}, {"measurement": "MM cell apoptosis in tumors (mean±SD)", "setting": "[2]; histopathology, light microscopy, p=0.001 versus control", "value": "41.1%±12.7"}, {"measurement": "kidney histology", "setting": "[2]; mouse, in vivo", "value": "mild tubular vacuolization"}, {"measurement": "microscopic toxicity on liver, heart, lung, brain, and spleen", "setting": "[2]; mouse, in vivo", "value": "no microscopic evidence of any toxicity"}, {"measurement": "solubility", "setting": "[3]; EtOH 76% diluted 5X in 0.9% saline, aqueous with cosolvent or surfactant or cyclodextrin, EtOH 76%, diluted in 0.9% saline, read-out: β-lapachone Solubility, 5X dilution", "value": 102, "unit": "µg/mL"}, {"measurement": "solubility", "setting": "[3]; EtOH 76%, organic solvent or mixture, read-out: β-lapachone Solubility, Undiluted", "value": 10700, "unit": "µg/mL"}, {"measurement": "solubility", "setting": "[3]; PEG 400, organic solvent or mixture, read-out: β-lapachone Solubility, Undiluted", "value": 11700, "unit": "µg/mL"}, {"measurement": "solubility", "setting": "[3]; PEG 400 diluted 5X in 0.9% saline, aqueous with cosolvent or surfactant or cyclodextrin, PEG 400, diluted in 0.9% saline, read-out: β-lapachone Solubility, 5X dilution", "value": 140, "unit": "µg/mL"}, {"measurement": "solubility", "setting": "[3]; Poloxamer 20% diluted 5X in 0.9% saline, aqueous with cosolvent or surfactant or cyclodextrin, Poloxamer 20%, diluted in 0.9% saline, read-out: β-lapachone Solubility, 5X dilution", "value": 33.1, "unit": "µg/mL"}, {"measurement": "solubility", "setting": "[3]; Poloxamer 20%, aqueous with cosolvent or surfactant or cyclodextrin, read-out: β-lapachone Solubility, Undiluted", "value": 2040, "unit": "µg/mL"}, {"measurement": "solubility", "setting": "[3]; Povidone K12 20% diluted 5X in 0.9% saline, aqueous with cosolvent or surfactant or cyclodextrin, Povidone K12 20%, diluted in 0.9% saline, read-out: β-lapachone Solubility, 5X dilution", "value": 31.3, "unit": "µg/mL"}, {"measurement": "solubility", "setting": "[3]; Povidone K12 20%, aqueous with cosolvent or surfactant or cyclodextrin, read-out: β-lapachone Solubility, Undiluted", "value": 1860, "unit": "µg/mL"}, {"measurement": "solubility", "setting": "[3]; Povidone K17 20% diluted 5X in 0.9% saline, aqueous with cosolvent or surfactant or cyclodextrin, Povidone K17 20%, diluted in 0.9% saline, read-out: β-lapachone Solubility, 5X dilution", "value": 31.2, "unit": "µg/mL"}, {"measurement": "solubility", "setting": "[3]; Povidone K17 20%, aqueous with cosolvent or surfactant or cyclodextrin, read-out: β-lapachone Solubility, Undiluted", "value": 1820, "unit": "µg/mL"}, {"measurement": "solubility", "setting": "[3]; Propylene Glycol diluted 5X in 0.9% saline, aqueous with cosolvent or surfactant or cyclodextrin, Propylene Glycol, diluted in 0.9% saline, read-out: β-lapachone Solubility, 5X dilution", "value": 95, "unit": "µg/mL"}, {"measurement": "solubility", "setting": "[3]; Propylene Glycol, organic solvent or mixture, read-out: β-lapachone Solubility, Undiluted", "value": 8780, "unit": "µg/mL"}, {"measurement": "solubility", "setting": "[3]; Trappsol 20% diluted 5X in 0.9% saline, aqueous with cosolvent or surfactant or cyclodextrin, Trappsol 20%, diluted in 0.9% saline, read-out: β-lapachone Solubility, 5X dilution", "value": 30, "unit": "µg/mL"}, {"measurement": "solubility", "setting": "[3]; Trappsol 20%, aqueous with cosolvent or surfactant or cyclodextrin, read-out: β-lapachone Solubility, Undiluted", "value": 1460, "unit": "µg/mL"}, {"measurement": "solubility", "setting": "[3]; Tween 80, aqueous with cosolvent or surfactant or cyclodextrin, read-out: β-lapachone Solubility, Undiluted", "value": 11200, "unit": "µg/mL"}, {"measurement": "solubility", "setting": "[3]; Tween 80 diluted 5X in 0.9% saline, aqueous with cosolvent or surfactant or cyclodextrin, Tween 80, diluted in 0.9% saline, read-out: β-lapachone Solubility, 5X dilution", "value": 1660, "unit": "µg/mL"}, {"measurement": "solubility", "setting": "[3]; organic solvent or mixture, highest of all solvent systems, undiluted, read-out: maximum solubility in the solvents listed in Table 1", "value": "~12000", "unit": "µg/mL"}]}
